Experimental data from patent US8436159B2, “Glyphosate resistant class I 5-endolpyruvylshikimate-3-phosphate synthase (EPSPS)” (Monsanto Technology LLC, priority 2003, dated 2013).
Numbering of substitutions follows the chain as printed.

Experiments:
[1] = target: T1, maize (Zea mays) class I EPSPS variant TIPC (T102I, P106C), pMON42485 (Zea mays, UniProt O24566, P106C/T102I); experiment: EPSPS steady-state kinetics, TIPC variant
T1 sequence (O24566 1-444 T102I/P106C): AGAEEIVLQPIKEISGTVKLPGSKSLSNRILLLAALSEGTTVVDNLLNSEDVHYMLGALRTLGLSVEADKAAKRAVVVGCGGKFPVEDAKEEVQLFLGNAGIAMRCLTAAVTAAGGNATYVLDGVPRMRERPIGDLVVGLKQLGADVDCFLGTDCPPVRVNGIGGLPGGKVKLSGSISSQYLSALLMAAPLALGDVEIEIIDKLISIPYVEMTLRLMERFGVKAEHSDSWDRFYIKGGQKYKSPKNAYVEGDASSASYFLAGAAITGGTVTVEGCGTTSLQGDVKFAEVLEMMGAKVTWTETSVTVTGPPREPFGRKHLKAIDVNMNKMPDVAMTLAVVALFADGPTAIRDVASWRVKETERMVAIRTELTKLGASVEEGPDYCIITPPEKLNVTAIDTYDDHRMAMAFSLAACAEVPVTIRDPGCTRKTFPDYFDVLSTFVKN
From the text: (§1) The double variants of the present invention were made using pMON58452 (FIG. 5) as the template. This pMON58452 EPSPS gene template contains the maize EPSPS double variant T102I, P106T (TIPT) that was constructed by mutagenesis of pMON70467 with the mutagenesis primers mEmut-9-U and mEmut-10-L. The various mutagenesis primer sequences were designed and then were synthesized by Invitrogen Corp., Custom Primers and used in combination in a PCR to create the variant EPSPS coding sequences. The PCR was set up in a 50 μl reaction in the following manner: dH2O 38 μl; 2 mM dNTP 1 μL; 10× buffer 5 μL; pMON58452 1 μL (10 ng); primer-U 2 μL; primer-L 2 μL; pfu Turbo enzyme 1 μL. PCR was carried out on a MJ Research PTC-200 thermal cycler using the following program: Step 1—94° C. for 30 seconds; Step 2—94° C. for 30 seconds; Step 3—55° C. for 1 minute; Step 4—68° C. for 14 minute; Step 5—go to step 2, 16 times; Step 6—End. At the end of the PCR, 1 μl of the restriction enzyme DpnI was added to each 50 μl of PCR reaction and the mixture was incubated at 37° C. for 1 hour. […]

[2] = target: T2, maize (Zea mays) class I EPSPS variant TIPG (T102I, P106G), pMON42480 (Zea mays, UniProt O24566, P106G/T102I); experiment: EPSPS steady-state kinetics, TIPG variant; type: biochemical
T2 construct: pMON42480
T2 sequence (O24566 1-444 T102I/P106G): T1 sequence (O24566 1-444 T102I/P106C) with C106G
From the text: as §1

SMILES: O=C(O)CNCP(=O)(O)O [glyphosate, N-phosphonomethylglycine]
- Ki [1]: 818 ± 74.4 µM
- Ki [2]: 38.6 µM
